Earlier results, collected in article PMC7590008, “Slow Dissolution Kinetics of Model Peptide Fibrils” (International Journal of Molecular Sciences, 2020).
Where a name gives a salt, the structure may show the parent alone.

Settings: can be considered a strong acid
Source text: First of all, for c<cs , the pH ≈6.3 is essentially the same as that of pure water (with some dissolved CO 2 ). This means that the A 8 K is a neutral salt and not a net acid or base. This implies that we can write the compound as PH ^+ TFA ^− , where P stands for the A 8 K peptide. The dry compound is a TFA salt, but with only one TFA counterion, because the carboxyl group is neutralized by one of the two ammonium groups ...

**Q.** For O=C(O)C(F)(F)F [TFA, Trifluoroacetate], which pK a is on record?
**A.** The pK a was “≈ 1”.
